From US20260108527A1, “POLO LIKE KINASE 4 INHIBITORS” (ORIC Pharmaceuticals, Inc., priority 2022, published 2026)
Values belong to the compound of their own block, whether it stands above or below them.

What was measured:
human recombinant PLK4 = target: T1, human recombinant PLK4 (Homo sapiens, UniProt O00444); assay: PLK4 Biochemical Assay (ADP-Glo); conditions: 0.5 nM PLK4, 8.0 μM ATP, 4.7 μM MBP, 6 hours at RT
T1 construct: purchased ThermoFisher PV6396
T1 sequence (O00444 1-970): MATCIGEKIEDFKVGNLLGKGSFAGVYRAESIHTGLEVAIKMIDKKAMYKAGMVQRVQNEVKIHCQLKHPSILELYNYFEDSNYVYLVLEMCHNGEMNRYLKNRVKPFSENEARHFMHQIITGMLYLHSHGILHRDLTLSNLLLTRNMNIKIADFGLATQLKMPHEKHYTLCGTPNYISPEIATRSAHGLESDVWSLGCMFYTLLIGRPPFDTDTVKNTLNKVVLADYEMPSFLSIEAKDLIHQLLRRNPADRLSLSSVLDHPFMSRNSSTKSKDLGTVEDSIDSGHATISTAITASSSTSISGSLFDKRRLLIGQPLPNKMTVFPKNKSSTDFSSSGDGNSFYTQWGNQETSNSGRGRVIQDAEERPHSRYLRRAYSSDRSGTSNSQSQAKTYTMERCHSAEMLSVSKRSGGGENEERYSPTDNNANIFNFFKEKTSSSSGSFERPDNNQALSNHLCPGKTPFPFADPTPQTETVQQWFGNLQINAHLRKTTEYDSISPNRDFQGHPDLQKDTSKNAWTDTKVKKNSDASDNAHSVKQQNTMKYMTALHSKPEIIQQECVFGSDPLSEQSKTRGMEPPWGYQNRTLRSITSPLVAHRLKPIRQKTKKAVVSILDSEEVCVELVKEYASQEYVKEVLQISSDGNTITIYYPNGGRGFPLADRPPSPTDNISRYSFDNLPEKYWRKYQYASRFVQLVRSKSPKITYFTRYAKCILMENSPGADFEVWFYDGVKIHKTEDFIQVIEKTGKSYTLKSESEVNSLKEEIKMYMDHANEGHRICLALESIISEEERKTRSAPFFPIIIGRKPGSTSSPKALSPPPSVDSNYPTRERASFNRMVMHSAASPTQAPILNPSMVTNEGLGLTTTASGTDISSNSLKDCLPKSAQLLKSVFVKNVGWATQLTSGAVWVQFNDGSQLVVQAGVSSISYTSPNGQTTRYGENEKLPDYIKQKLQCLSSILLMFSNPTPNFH
Description: Activity of human recombinant PLK4 (ThermoFisher, cat #PV6396) was measured by quantification of adenosine diphosphate (ADP) using the ADP-Glo Kinase Assay Kit (Promega, cat #V9102). […] 5 μL of 1.0 nM PLK4 protein in assay buffer (50 mM HEPES, pH 7.5, 0.01% Brij-35, 0.01% BSA, 10 mM MgCl2, 1 mM EGTA, 1 mM DTT) was added to the plates. Test compounds and PLK4 were incubated for 15 minutes at room temperature (RT). […] Reactions were stopped and the remaining ATP depleted by adding 10 μL of ADP-Glo reagent (Promega, cat #V912B) and incubating for 40 minutes at RT. The simultaneous conversion of the remaining ADP to ATP and measurement of the newly synthesized ATP was achieved by addition of 20 μL Kinase Detection reagent (Promega, cat #V914B), incubation for 30 min at RT, and luminescence detection using the EnVision plate reader (PerkinElmer). […] The IC50 values reported in Table 2 were determined using four parameter non-linear regression curve fit.

[1] = target: T2, human recombinant Aurora A (Homo sapiens, UniProt O14965); assay: Aurora A Kinase Biochemical Assay (ADP-Glo); conditions: selectivity ratio; Aurora A 2.5 nM, 20 μM ATP
T2 construct: purchased ThermoFisher PR5935A
T2 sequence (O14965 1-403): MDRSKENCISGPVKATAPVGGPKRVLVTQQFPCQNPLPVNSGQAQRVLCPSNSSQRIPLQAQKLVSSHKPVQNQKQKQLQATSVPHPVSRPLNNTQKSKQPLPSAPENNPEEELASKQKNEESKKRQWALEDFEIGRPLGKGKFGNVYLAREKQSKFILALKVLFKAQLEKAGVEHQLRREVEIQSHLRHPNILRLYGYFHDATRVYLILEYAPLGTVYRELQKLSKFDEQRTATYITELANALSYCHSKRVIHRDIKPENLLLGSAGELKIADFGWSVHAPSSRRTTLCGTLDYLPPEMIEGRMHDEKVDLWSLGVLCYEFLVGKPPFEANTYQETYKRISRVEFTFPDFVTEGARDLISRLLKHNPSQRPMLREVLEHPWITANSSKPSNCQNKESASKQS
Description: Activity of human recombinant Aurora A (ThermoFisher, cat #PR5935A) was measured by quantification of adenosine diphosphate (ADP) using the ADP-Glo Kinase Assay Kit (Promega, cat #V9102). Test compounds were solubilized in dimethyl sulfoxide (DMSO) and dispensed into 384-well white polystyrene nonbinding plates (Greiner, cat #781094) using the Echo acoustic dispenser (Labcyte Inc.) in a 11-point 3-fold titration in duplicates. 5 μL of 5.0 nM Aurora A in assay buffer (50 mM HEPES, pH 7.5, 0.01% Brij-35, 0.01% BSA, 10 mM MgCl2, 1 mM EGTA, 1 mM DTT) was added to the plates. Test compounds and Aurora A were incubated for 15 minutes at room temperature (RT). Then 5 μL of a 40 μM adenosine triphosphate (ATP) (Promega, cat #V915B) and 9.3 μM Myelin Basic Protein (MBP) (SignalChem, cat #M42-51N) substrate solution in assay buffer was added and the reaction mixture was incubated for 2 hours at RT. The final concentration of Aurora A, ATP and MBP in the reactions were 2.5 nM, 20 μM and 4.7 μM, respectively. Reactions were stopped and the remaining ATP depleted by adding 10 μL of ADP-Glo reagent (Promega, cat #V912B) and incubating for 40 minutes at RT. The simultaneous conversion of the remaining ADP to ATP and measurement of the newly synthesized ATP was achieved by addition of 20 μL Kinase Detection reagent (Promega, cat #V914B), incubation for 30 min at RT, and luminescence detection using the EnVision plate reader (PerkinElmer). Reactions lacking Aurora A were used as 100% inhibition controls. Reactions containing DMSO alone were used as 0% inhibition controls. The IC50 values reported in Table 2 were determined using four parameter non-linear regression curve fit.

SMILES: CCOc1cc(-c2cn(C)cn2)ccc1Nc1n[nH]c2cc([C@@H]3C[C@@]34C(=O)Nc3ccc(OC)cc34)ccc12 [Example 29, (1R,2S)-2-{3-[2-ethoxy-4-(1-methyl-1H-imidazol-4-yl)anilino]-1H-indazol-6-yl}-5′-methoxyspiro[cyclopropane-1,3′-indol]-2′(1′H)-one]
IC50 (human recombinant PLK4): 1.95 nM
[Aurora A IC50 (nM)]/[PLK4 IC50 (nM)] [1]: 15611.2532

SMILES: CCOc1cc(-n2cncn2)ccc1Nc1n[nH]c2cc([C@@H]3C[C@@]34C(=O)Nc3ccc(OC)cc34)ccc12 [Example 10, (1R,2S)-2-{3-[2-ethoxy-4-(1H-1,2,4-triazol-1-yl)anilino]-1H-indazol-6-yl}-5′-methoxyspiro[cyclopropane-1,3′-indol]-2′(1′H)-one]
IC50 (human recombinant PLK4): 0.557 nM
[Aurora A IC50 (nM)]/[PLK4 IC50 (nM)] [1]: 2540.3949

SMILES: CCOc1ncc(-c2nccs2)nc1Nc1n[nH]c2cc([C@@H]3C[C@@]34C(=O)Nc3ccc(OC)cc34)ccc12 [Example 35, (1R,2S)-2-(3-{[3-ethoxy-6-(1,3-thiazol-2-yl)pyrazin-2-yl]amino}-1H-indazol-6-yl)-5′-methoxyspiro[cyclopropane-1,3′-indol]-2′(1′H)-one]
IC50 (human recombinant PLK4): 0.338 nM
[Aurora A IC50 (nM)]/[PLK4 IC50 (nM)] [1]: 727.2189

SMILES: COc1ccc2c(c1)[C@]1(C[C@H]1c1ccc3c(Nc4cc(-c5cocn5)cnc4OC)n[nH]c3c1)C(=O)N2 [Example 42, (1R,2S)-5′-methoxy-2-(3-{[2-methoxy-5-(1,3-oxazol-4-yl)pyridin-3-yl]amino}-1H-indazol-6-yl)spiro[cyclopropane-1,3′-indol]-2′(1′H)-one]
IC50 (human recombinant PLK4): 1.31 nM
[Aurora A IC50 (nM)]/[PLK4 IC50 (nM)] [1]: 157.8304

SMILES: CCOc1cnc(C#CC(C)(C)O)nc1Nc1n[nH]c2cc([C@@H]3C[C@@]34C(=O)Nc3ccc(OC)cc34)ccc12 [Example 45, (1R,2S)-2-(3-((5-ethoxy-2-(3-hydroxy-3-methylbut-1-yn-1-yl)pyrimidin-4-yl)amino)-1H-indazol-6-yl)-5′-methoxyspiro[cyclopropane-1,3′-indolin]-2′-one]
IC50 (human recombinant PLK4): 0.139 nM
[Aurora A IC50 (nM)]/[PLK4 IC50 (nM)] [1]: 42971.2230

SMILES: COc1ccc2c(c1)[C@]1(C[C@H]1c1ccc3c(Nc4cc(-c5ncco5)ccc4OC)n[nH]c3c1)C(=O)N2 [Example 13, (1R,2S)-5′-methoxy-2-{3-[2-methoxy-5-(1,3-oxazol-2-yl)anilino]-1H-indazol-6-yl}spiro[cyclopropane-1,3′-indol]-2′(1′H)-one]
IC50 (human recombinant PLK4): 0.65 nM
[Aurora A IC50 (nM)]/[PLK4 IC50 (nM)] [1]: 414.8

SMILES: COc1ccc2c(c1)[C@]1(C[C@H]1c1ccc3c(Nc4cc(-c5ccsn5)ccc4OC)n[nH]c3c1)C(=O)N2 [Example 30, (1R,2S)-5′-methoxy-2-{3-[2-methoxy-5-(1,2-thiazol-3-yl)anilino]-1H-indazol-6-yl}spiro[cyclopropane-1,3′-indol]-2′(1′H)-one]
IC50 (human recombinant PLK4): 0.694 nM
[Aurora A IC50 (nM)]/[PLK4 IC50 (nM)] [1]: 916.8947

Continued by falling IC50 (human recombinant PLK4), values first:

IC50 (human recombinant PLK4): 2.76 nM
[Aurora A IC50 (nM)]/[PLK4 IC50 (nM)] [1]: 1671.3768
SMILES: COc1ccc2c(c1)[C@]1(C[C@H]1c1ccc3c(Nc4ccc(C(C)=O)cc4OC)n[nH]c3c1)C(=O)N2 [Example 3, (1R,2S)-2-[3-(4-acetyl-2-methoxyanilino)-1H-indazol-6-yl]-5′-methoxyspiro[cyclopropane-1,3′-indol]-2′(1′H)-one]

IC50 (human recombinant PLK4): 1.8 nM
[Aurora A IC50 (nM)]/[PLK4 IC50 (nM)] [1]: 27839.6436
SMILES: CCOc1ccc(-c2cnn(C)c2)cc1Nc1n[nH]c2cc([C@@H]3C[C@@]34C(=O)Nc3ccc(OC)cc34)ccc12 [Example 37, (1R,2S)-2-{3-[2-ethoxy-5-(1-methyl-1H-pyrazol-4-yl)anilino]-1H-indazol-6-yl}-5′-methoxyspiro[cyclopropane-1,3′-indol]-2′(1′H)-one]

IC50 (human recombinant PLK4): 1.71 nM
[Aurora A IC50 (nM)]/[PLK4 IC50 (nM)] [1]: 10956.01173
SMILES: CCOc1cc(-c2cnccn2)ccc1Nc1n[nH]c2cc([C@@H]3C[C@@]34C(=O)Nc3ccc(OC)cc34)ccc12 [Example 7, (1R,2S)-2-{3-[2-ethoxy-4-(pyrazin-2-yl)anilino]-1H-indazol-6-yl}-5′-methoxyspiro[cyclopropane-1,3′-indol]-2′(1′H)-one]

IC50 (human recombinant PLK4): 0.894 nM
[Aurora A IC50 (nM)]/[PLK4 IC50 (nM)] [1]: 259.1
SMILES: COc1ccc2c(c1)[C@]1(C[C@H]1c1ccc3c(Nc4cc(-c5cocn5)ccc4OC)n[nH]c3c1)C(=O)N2 [Example 16, (1R,2S)-5′-methoxy-2-{3-[2-methoxy-5-(1,3-oxazol-4-yl)anilino]-1H-indazol-6-yl}spiro[cyclopropane-1,3′-indol]-2′(1′H)-one]

IC50 (human recombinant PLK4): 0.71 nM
[Aurora A IC50 (nM)]/[PLK4 IC50 (nM)] [1]: 500
SMILES: COc1ccc2c(c1)[C@]1(C[C@H]1c1ccc3c(Nc4cc(-c5cnco5)ccc4OC)n[nH]c3c1)C(=O)N2 [Example 18, (1R,2S)-5′-methoxy-2-{3-[2-methoxy-5-(1,3-oxazol-5-yl)anilino]-1H-indazol-6-yl}spiro[cyclopropane-1,3′-indol]-2′(1′H)-one]

IC50 (human recombinant PLK4): 0.65 nM
[Aurora A IC50 (nM)]/[PLK4 IC50 (nM)] [1]: 146.5230
SMILES: COc1ccc2c(c1)[C@]1(C[C@H]1c1ccc3c(Nc4cc(-c5cscn5)ccc4OC)n[nH]c3c1)C(=O)N2 [Example 15, (1R,2S)-5′-methoxy-2-{3-[2-methoxy-5-(1,3-thiazol-4-yl)anilino]-1H-indazol-6-yl}spiro[cyclopropane-1,3′-indol]-2′(1′H)-one]

IC50 (human recombinant PLK4): 0.52 nM
[Aurora A IC50 (nM)]/[PLK4 IC50 (nM)] [1]: 897.6923
SMILES: COc1ccc2c(c1)[C@]1(C[C@H]1c1ccc3c(Nc4cc(-c5cnn(C)c5)ccc4OC)n[nH]c3c1)C(=O)N2 [Example 11, (1R,2S)-5′-methoxy-2-{3-[2-methoxy-5-(1-methyl-1H-pyrazol-4-yl)anilino]-1H-indazol-6-yl}spiro[cyclopropane-1,3′-indol]-2′(1′H)-one]

IC50 (human recombinant PLK4): 0.341 nM
[Aurora A IC50 (nM)]/[PLK4 IC50 (nM)] [1]: 1135
SMILES: CCOc1ccc(-c2nccs2)nc1Nc1n[nH]c2cc([C@@H]3C[C@@]34C(=O)Nc3ccc(OC)cc34)ccc12 [Example 28, (1R,2S)-2-(3-{[3-ethoxy-6-(1,3-thiazol-2-yl)pyridin-2-yl]amino}-1H-indazol-6-yl)-5′-methoxyspiro[cyclopropane-1,3′-indol]-2′(1′H)-one]
